Reference: patent US10858307B2, “Compositions and methods for treating liver cancer” (Golden Biotechnology Corporation, priority 2016, dated 2020)
Values after ≈ are worked out from the molar mass of the structure shown.

What was measured:
[1] = system: Human hepatoma cell lines (HepG2); experiment: MTT cell viability assay; assay type: cell-based; conditions: for IC50: Homo sapiens, HepG2 cells, 48 h exposure; for inhibition against liver cancer cells compared to Compound S: versus Compound S
Description: The MTT (3-(4, 5-dimethylthiazol-2-yl)-2,5-diphenyl tetrazolium bromide) cell viability assay is a colorimetric assay system, which measures the reduction of a tetrazolium component (MTT) into an insoluble blue/purple colored formazan product by succinate tetrazolium reductase in mitochondria of viable cells. The absorbance of the complex is read spectrophotometrically and is directly proportional to the number of live or viable cells. Formazan formation can therefore be used to assess and determine the survival rate of cells.
Human hepatoma cell lines (HepG2) were obtained from American Type Culture Collection (Rockville, Md., USA) and cultured in Minimum Essential Medium Alpha (Invitrogen/Gibco BRL, Grand Island, N.Y., USA) at 37° C. in 5% CO2 in culture media supplemented with 10% fetal bovine serum (FBS) (Invitrogen/Gibco BRL) and 100 U/ml streptomycin and penicillin (Invitrogen/Gibco BRL).
100 μL of HepG2 cells (1×10^4 cells per well) were seeded in 96 well plates and pre-incubated. After 24 h, the cells were exposed to various concentrations of Compounds 1-11, and the known compound 4-hydroxy-2,3-dimethoxy-6-methyl-5-(3,7,11-trimethyldodeca-2,6,10-trienyl)cyclohex-2-enone (Compound S) in a volume of 200 μL for 48 h. 20 μL of MTT reagent (5 mg/mL) was added to each well and then incubated in 5% CO2 at 37° C. for 4 h. The media was replaced with 200 μL of DMSO to dissolve the MTT tetrazolium crystal. Absorbance was measured at 570 nm using a microplate reader.

Human HCC Mahlavu cells = experiment: Efficacy test on liver cancer xenograft model; assay type: in vivo, nude mice
Description: […] nude mice (National Laboratory Animal Center) of four to six weeks old were used and maintained in laminar flow cabinets under pathogen-free condition. Human HCC Mahlavu cells (1×10^6 cells) carrying luciferase gene were re-suspended in 20 μL of PBS containing 50% matrigel (BD Biosciences, MA) and injected into the left lateral liver lobe of athymic nude mice (National Laboratory Animal Center) with 27-gauge needle by sterile techniques (Lu et al., 2007). For bioluminescence imaging, the animals were injected with the luciferase substrate D-luciferin at a dose of 150 mg/kg in 0.2 mL sterile isotonic saline.
Tumor growth and metastatic status was monitored using the Xenogen […] (IVIS) imaging system every two weeks. All images were obtained after intraperitoneal injection of luciferin (100 mg/kg body weight; Synchem, Elk Grove Village, Ill., United States). […] Image analysis and bioluminescence quantification were performed using Living Image software (Caliper Life Sciences, Hopkinton, Mass., United States). […] The body weight was measured twice weekly.
The tumor-bearing mice were treated with vehicle (olive oil) or Compound 1 at 120 mg/kg by oral gavage twice per day and 5 days per week for 4 weeks. The tumor volume was measured twice weekly. ***P<0.005 compared to vehicle control. […]

Compound	IC50 [1] [µg/mL]	inhibition against liver cancer cells compared to Compound S [1]	tumor size (Human HCC Mahlavu cells; 120 mg/kg oral gavage twice per day, 5 days per week for 4 weeks, P<0.005 compared to vehicle control)	decrease of tumor mass compared with control (Human HCC Mahlavu cells; 120 mg/kg oral gavage, at the end of week 12)
COC1=C(N(C)C)[C@@H](O)[C@@H](C/C=C(\C)CC/C=C(\C)CCC=C(C)C)[C@H](C)C1=O [Compound 4]	0.18 (≈ 0.446 µM)	much better unexpected inhibition		
COC1=C(NCCc2c[nH]c3ccccc23)[C@@H](O)[C@@H](C/C=C(\C)CC/C=C(\C)CCC=C(C)C)[C@H](C)C1=O [Compound 11]	2.29 (≈ 4.41 µM)			
COC1=C(OC)C(O)C(CC=C(C)CCC=C(C)CCC=C(C)C)C(C)C1=O (stereo not shown) [Compound S, 4-hydroxy-2,3-dimethoxy-6-methyl-5-(3,7,11-trimethyldodeca-2,6,10-trienyl)cyclohex-2-enone, reference compound]	2.4 (≈ 6.14 µM)			

The next lines start with results.

IC50 [1] [µg/mL]	Compound	inhibition against liver cancer cells compared to Compound S [1]	tumor size (Human HCC Mahlavu cells; 120 mg/kg oral gavage twice per day, 5 days per week for 4 weeks, P<0.005 compared to vehicle control)	decrease of tumor mass compared with control (Human HCC Mahlavu cells; 120 mg/kg oral gavage, at the end of week 12)
0.13 (≈ 0.346 µM)	COC1=C(N)[C@@H](O)[C@@H](C/C=C(\C)CC/C=C(\C)CCC=C(C)C)[C@H](C)C1=O [Compound 1, (4S,5S,6S)-3-amino-4-hydroxy-2-methoxy-6-methyl-5-((2E,6E)-3,7,11-trimethyldodeca-2,6,10-trien-1-yl)cyclohex-2-enone]	much better unexpected inhibition	decrease of the tumor size	at least 4 folds
0.87 (≈ 2.01 µM)	COC1=C(NCCCN)[C@@H](O)[C@@H](C/C=C(\C)CC/C=C(\C)CCC=C(C)C)[C@H](C)C1=O [Compound 5]	much better unexpected inhibition		
1.95 (≈ 4.65 µM)	COC1=C(NCCO)[C@@H](O)[C@@H](C/C=C(\C)CC/C=C(\C)CCC=C(C)C)[C@H](C)C1=O [Compound 7]			
0.91 (≈ 1.93 µM)	COC1=C(NCc2cccs2)[C@@H](O)[C@@H](C/C=C(\C)CC/C=C(\C)CCC=C(C)C)[C@H](C)C1=O [Compound 10]	much better unexpected inhibition		
